Laboratory results taken from ChEMBL document CHEMBL5247653, “Discovery of Clinical Candidate ACT-777991, a Potent CXCR3 Antagonist for Antigen-Driven and Inflammatory Pathologies” (J Med Chem, 2023).

Columns and labels:
[1] = Metabolic stability in human liver microsomes assessed as intrinsic clearance at 1 uM and measured upto 15 mins in presence of NADPH regenerating system by LC-MS/MS analysis; type: ADME, Microsome; settings: read-out: CLH
[2] = target: Voltage-gated inwardly rectifying potassium channel KCNH2 (Homo sapiens, UniProt Q12809); test: Inhibition of human ERG stably expressed in CHO cells at -80 mV holding voltage by automated QPatch electrophysiological assay; type: toxicity, cell-based
Chain of Voltage-gated inwardly rectifying potassium channel KCNH2 (Q12809 whole entry): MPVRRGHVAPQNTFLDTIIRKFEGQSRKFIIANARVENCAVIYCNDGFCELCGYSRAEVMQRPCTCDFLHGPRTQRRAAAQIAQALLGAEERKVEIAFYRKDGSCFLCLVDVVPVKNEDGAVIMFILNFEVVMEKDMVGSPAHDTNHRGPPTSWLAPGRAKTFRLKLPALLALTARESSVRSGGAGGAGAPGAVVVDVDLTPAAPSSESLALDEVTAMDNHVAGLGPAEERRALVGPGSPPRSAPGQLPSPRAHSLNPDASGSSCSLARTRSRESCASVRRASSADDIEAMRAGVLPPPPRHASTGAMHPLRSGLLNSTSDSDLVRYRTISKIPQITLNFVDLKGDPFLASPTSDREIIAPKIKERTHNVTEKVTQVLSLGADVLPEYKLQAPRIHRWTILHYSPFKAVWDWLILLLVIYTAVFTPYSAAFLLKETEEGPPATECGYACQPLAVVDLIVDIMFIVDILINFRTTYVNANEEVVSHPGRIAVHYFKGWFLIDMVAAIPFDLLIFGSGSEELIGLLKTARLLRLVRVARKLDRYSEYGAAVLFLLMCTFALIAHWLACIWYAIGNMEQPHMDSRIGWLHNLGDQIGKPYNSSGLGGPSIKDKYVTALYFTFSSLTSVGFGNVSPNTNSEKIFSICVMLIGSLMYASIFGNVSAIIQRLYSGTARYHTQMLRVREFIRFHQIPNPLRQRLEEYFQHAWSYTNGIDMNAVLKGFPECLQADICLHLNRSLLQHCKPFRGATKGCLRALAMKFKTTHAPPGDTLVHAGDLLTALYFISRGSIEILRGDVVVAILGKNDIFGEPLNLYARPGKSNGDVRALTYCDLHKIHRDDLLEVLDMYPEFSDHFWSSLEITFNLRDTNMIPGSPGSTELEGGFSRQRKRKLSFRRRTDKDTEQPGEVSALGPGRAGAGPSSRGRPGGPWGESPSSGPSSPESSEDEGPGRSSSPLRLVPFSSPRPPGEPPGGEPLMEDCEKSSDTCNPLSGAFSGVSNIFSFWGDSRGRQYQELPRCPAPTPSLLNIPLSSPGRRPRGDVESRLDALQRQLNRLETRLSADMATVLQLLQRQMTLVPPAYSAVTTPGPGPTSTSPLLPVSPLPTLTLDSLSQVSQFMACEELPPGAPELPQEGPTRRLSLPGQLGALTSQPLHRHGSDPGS

[3] = target: T1, C-X-C chemokine receptor type 3 (Homo sapiens, UniProt P49682); test: Antagonist activity at CXCR3 (unknown origin) in human T cells in venous blood assessed as receptor internalization incubated for 30 mins in presence of CXCL10 by flow cytometric analysis; type: cell-based, T cell
T1 sequence (P49682 whole entry): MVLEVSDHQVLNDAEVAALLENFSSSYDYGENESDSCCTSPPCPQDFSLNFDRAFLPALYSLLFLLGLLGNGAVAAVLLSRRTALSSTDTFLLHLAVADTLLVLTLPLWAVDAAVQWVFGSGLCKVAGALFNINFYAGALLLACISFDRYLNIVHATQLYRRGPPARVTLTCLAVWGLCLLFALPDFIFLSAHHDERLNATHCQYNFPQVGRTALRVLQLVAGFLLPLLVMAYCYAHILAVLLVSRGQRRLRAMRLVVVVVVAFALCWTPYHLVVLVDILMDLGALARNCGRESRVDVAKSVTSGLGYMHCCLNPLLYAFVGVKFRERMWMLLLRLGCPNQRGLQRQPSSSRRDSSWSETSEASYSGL

[4] = Oral bioavailability in Beagle dog at 2 mg/kg; type: ADME, organism-based, Canis lupus familiaris; settings: in vivo
[5] = Oral bioavailability in Wistar rat at 2 mg/kg; type: ADME, organism-based; settings: in vivo
[6] = Clearance in Wistar rat at 2 mg/kg,po; type: ADME, organism-based; settings: in vivo
CYP2D6 = CYP2D6 (Homo sapiens, UniProt P10635); test: (§1) […] recombinant human CYP2D6 mediated drug metabolism in human liver microsomes assessed as intrinsic clearance at 1 uM incubated for 45 mins in presence of NADPH regenerating system by LC-MS/MS analysis; type: ADME, Microsome; settings: recombinant human CYP2D6, read-out: CLH
Chain of CYP2D6 (P10635 whole entry): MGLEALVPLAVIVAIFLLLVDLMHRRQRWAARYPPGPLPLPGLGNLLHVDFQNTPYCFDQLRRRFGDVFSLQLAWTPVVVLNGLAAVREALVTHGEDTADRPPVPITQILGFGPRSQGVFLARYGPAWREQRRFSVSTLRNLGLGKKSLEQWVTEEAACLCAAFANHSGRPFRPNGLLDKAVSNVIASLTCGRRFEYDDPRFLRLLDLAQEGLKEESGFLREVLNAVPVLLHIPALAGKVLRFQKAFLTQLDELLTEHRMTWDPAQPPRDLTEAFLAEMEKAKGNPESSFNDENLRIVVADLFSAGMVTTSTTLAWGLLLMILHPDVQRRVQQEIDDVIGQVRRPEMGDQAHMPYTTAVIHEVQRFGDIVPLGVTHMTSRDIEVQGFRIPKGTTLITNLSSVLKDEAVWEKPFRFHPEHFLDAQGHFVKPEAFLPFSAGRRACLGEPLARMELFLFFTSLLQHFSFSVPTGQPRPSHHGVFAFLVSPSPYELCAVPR

CYP3A4 = CYP3A4 (Homo sapiens, UniProt P08684); test: […] recombinant human CYP3A4 mediated drug metabolism in human liver microsomes assessed as intrinsic clearance at 1 uM incubated for 45 mins in presence of NADPH regenerating system by LC-MS/MS analysis; type: ADME, Microsome; settings: read-out: CLH
Chain of CYP3A4 (P08684 whole entry): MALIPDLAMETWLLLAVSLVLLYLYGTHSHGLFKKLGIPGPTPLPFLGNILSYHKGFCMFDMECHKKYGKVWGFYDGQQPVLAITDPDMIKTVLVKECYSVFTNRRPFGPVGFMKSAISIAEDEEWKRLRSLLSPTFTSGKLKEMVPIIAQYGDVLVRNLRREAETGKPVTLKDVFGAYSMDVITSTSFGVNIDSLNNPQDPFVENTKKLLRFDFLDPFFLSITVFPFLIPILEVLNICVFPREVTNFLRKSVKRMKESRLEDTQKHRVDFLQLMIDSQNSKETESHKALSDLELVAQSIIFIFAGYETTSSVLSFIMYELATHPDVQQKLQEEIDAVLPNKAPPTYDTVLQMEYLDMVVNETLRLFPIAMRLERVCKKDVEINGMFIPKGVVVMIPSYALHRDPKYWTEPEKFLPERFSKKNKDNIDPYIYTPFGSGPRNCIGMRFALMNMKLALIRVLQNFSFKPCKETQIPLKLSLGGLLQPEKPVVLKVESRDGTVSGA

[7] = Lipophilicity, log D of compound; type: physicochemical; settings: octanol/water
[8] = Protein binding in rat plasma assessed as fraction unbound at 1 uM incubated for 6 hrs by rapid equilibrium dialysis based LC-MS/MS analysis; type: ADME, cell-free
[9] = Drug excretion in urine of Wistar rat assessed as unchanged drug at 0.5 mg/kg, iv; type: ADME, organism-based; settings: read-out: Drug excretion
[10] = Protein binding in human plasma assessed as fraction unbound at 1 uM incubated for 6 hrs by rapid equilibrium dialysis based LC-MS/MS analysis; type: ADME, cell-free
[11] = Metabolic stability in dog hepatocytes assessed as intrinsic clearance per 10^6 cells at 1 uM by LC-MS/MS analysis; type: ADME, cell-based, Canis lupus familiaris, Hepatocyte
[12] = Metabolic stability in human hepatocytes assessed as intrinsic clearance per 10^6 cells at 1 uM by LC-MS/MS analysis; type: ADME, cell-based, Hepatocyte
[13] = Unbound clearance in Beagle dog plasma at 1 mg/kg, iv; type: ADME, organism-based, Canis lupus familiaris; settings: in vivo
[14] = Metabolic stability in dog liver microsomes assessed as intrinsic clearance at 1 uM and measured upto 15 mins in presence of NADPH regenerating system by LC-MS/MS analysis; type: ADME, Canis lupus familiaris, Microsome; settings: read-out: CLH
[15] = Protein binding in dog plasma assessed as fraction unbound at 1 uM incubated for 6 hrs by rapid equilibrium dialysis based LC-MS/MS analysis; type: ADME, cell-free, Canis lupus familiaris
Cytochrome P450 2D6 = Cytochrome P450 2D6 (Homo sapiens, UniProt P10635); test: as §1; type: ADME, Microsome; settings: microsomes, 0.75 h, 1 µM
Chain of Cytochrome P450 2D6 (P10635 whole entry): as the sequence (P10635 whole entry) above

[16] = Total clearance in Wistar rat plasma at 0.5 mg/kg, iv; type: ADME, organism-based
[17] = Metabolic stability in rat liver microsomes assessed as intrinsic clearance at 1 uM and measured upto 15 mins in presence of NADPH regenerating system by LC-MS/MS analysis; type: ADME, Microsome; settings: read-out: CLH
[18] = Unbound clearance in Wistar rat plasma at 0.5 mg/kg, iv; type: ADME, organism-based; settings: in vivo
[19] = Total clearance in Beagle dog plasma at 1 mg/kg, iv; type: ADME, organism-based, Canis lupus familiaris
[20] = Metabolic stability in rat hepatocytes assessed as intrinsic clearance per 10^6 cells at 1 uM by LC-MS/MS analysis; type: ADME, cell-based, Hepatocyte
[21] = Drug excretion in urine of Wistar rat assessed as unchanged drug at 3 mg/kg, iv; type: ADME, organism-based; settings: read-out: Drug excretion

Structure (SMILES)	microsomal CLint at 1 µM [1] [µL/min/mg]	IC50 [2] [nM]	IC50 [3] [nM]	also measured
CCc1ccn(CC(=O)N2CCN(c3sc(C(F)(F)F)nc3-c3cnc(C(F)(F)F)nc3)C[C@H]2CO)n1	81	8600	33.7	
C[C@@H]1CN(c2sc(C(F)(F)F)nc2-c2cnc(C(F)(F)F)nc2)CCN1C(=O)Cn1cnc(C(C)(C)C)n1		7500	240	
CC(C)c1ncn(CC(=O)N2CCN(c3sc(C(F)(F)F)nc3-c3cnc(C(F)(F)F)nc3)C[C@H]2C)n1		7000	128	bioavailability [4]: ≥ 100%; bioavailability [5]: > 100%; CL/F [6]: 6.5 mL/min/kg
C[C@@H]1CN(c2sc(C(F)(F)F)nc2-c2cnc(C(F)(F)F)nc2)CCN1C(=O)Cn1cnc(CO)n1		> 60000	510	
C[C@@H]1CN(c2sc(C(F)(F)F)nc2-c2cnc(C(F)(F)F)nc2)CCN1C(=O)Cn1cnc(C(N)=O)n1		> 60000	2150	
CC(C)c1ncn(CC(=O)N2CCN(c3sc(C(F)(F)F)nc3-c3cnc(C(F)(F)F)nc3)C[C@H]2CO)n1	33	29000	225	microsomal CLint at 1 µM (CYP2D6): 0.13 µL/min/mg; microsomal CLint at 1 µM (CYP3A4): 1.2 µL/min/mg
CC(O)c1ncn(CC(=O)N2CCN(c3sc(C(F)(F)F)nc3-c3cnc(C(F)(F)F)nc3)C[C@H]2C)n1 (stereo partly drawn)		> 60000	356	
CCc1ncn(CC(=O)N2CCN(c3sc(C(F)(F)F)nc3-c3cnc(C(F)(F)F)nc3)C[C@H]2CO)n1	< 10	52000	208	logD [7]: 2.6
CCc1nc(C)nn1CC(=O)N1CCN(c2sc(C(F)(F)F)nc2-c2cnc(C(F)(F)F)nc2)C[C@H]1C		12000	680	
Cc1ncnn1CC(=O)N1CCN(c2sc(C(F)(F)F)nc2-c2cnc(C(F)(F)F)nc2)C[C@H]1C		16000	477	
CCc1ccn(CC(=O)N2CCN(c3sc(C(F)(F)F)nc3-c3cnc(C(F)(F)F)nc3)C[C@H]2CCO)n1	112	2900	24.9	
Cc1ccn(CC(=O)N2CCN(c3sc(C(F)(F)F)nc3-c3cnc(C(F)(F)F)nc3)C[C@H]2CO)n1	< 10	13000	53.2	microsomal CLint at 1 µM (CYP2D6): 0.41 µL/min/mg; microsomal CLint at 1 µM (CYP3A4): 0.72 µL/min/mg
CCc1ncn(CC(=O)N2CCN(c3sc(C(F)(F)F)nc3-c3cnc(C(F)(F)F)nc3)C[C@H]2CCO)n1	< 10	9800	44.9	fraction unbound at 6 h, 1 µM [8]: 0.045; dose excreted [9]: 37%; fraction unbound at 6 h, 1 µM [10]: 0.15; CLH [11]: < 2 µL/min/mg; CLH [12]: < 2 µL/min/mg; CL free [13]: 64 mL/min/kg; microsomal CLint at 1 µM [14]: < 10 µL/min/mg; fraction unbound at 6 h, 1 µM [15]: 0.3; CLH (Cytochrome P450 2D6): 0.09 µL/min/mg; clearance [16]: 14 mL/min/kg; microsomal CLint at 1 µM [17]: 13 µL/min/mg; microsomal CLint at 1 µM (CYP3A4): 0.33 µL/min/mg; logD [7]: 2.8; CL free [18]: 311 mL/min/kg; clearance [19]: 19 mL/min/kg; CLH [20]: 3.2 µL/min/mg
COCc1ncn(CC(=O)N2CCN(c3sc(C(F)(F)F)nc3-c3cnc(C(F)(F)F)nc3)C[C@H]2C)n1		18000	440	
C[C@@H]1CN(c2sc(C(F)(F)F)nc2-c2cnc(C(F)(F)F)nc2)CCN1C(=O)Cn1cnc(C#N)n1		2600	1320	
Cc1ccn(CC(=O)N2CCN(c3sc(C(F)(F)F)nc3-c3cnc(C(F)(F)F)nc3)C[C@H]2CCO)n1	19	5000	30.2	
CCc1ncn(CC(=O)N2CCN(c3sc(C(F)(F)F)nc3-c3cnc(C(F)(F)F)nc3)C[C@H]2C)n1		12000	117	
Cc1ncn(CC(=O)N2CCN(c3sc(C(F)(F)F)nc3-c3cnc(C(F)(F)F)nc3)C[C@@H]2CO)n1		> 60000	273	

Structure (SMILES)	microsomal CLint at 1 µM [1] [µL/min/mg]	IC50 [2] [nM]	IC50 [3] [nM]	also measured
CC(C)c1ncn(CC(=O)N2CCN(c3sc(C(F)(F)F)nc3-c3cnc(C(F)(F)F)nc3)C[C@H]2CCO)n1	22	5800	63	
CCc1ncnn1CC(=O)N1CCN(c2sc(C(F)(F)F)nc2-c2cnc(C(F)(F)F)nc2)C[C@H]1C		13000	1190	logD [7]: 2.8
C[C@@H]1CN(c2sc(C(F)(F)F)nc2-c2cnc(C(F)(F)F)nc2)CCN1C(=O)Cn1cnc(C(F)(F)F)n1		3900	191	
CCc1ncn(CC(=O)N2CCN(c3sc(C(F)(F)F)nc3-c3cnc(C(F)(F)F)nc3)C[C@@H]2CCO)n1	17	27000	265	
CCc1ncn(CC(=O)N2CCN(c3sc(C(F)(F)F)nc3-c3cnc(C(F)(F)F)nc3)C[C@@H]2CO)n1	< 10	> 60000	82	microsomal CLint at 1 µM (CYP2D6): 0.13 µL/min/mg; microsomal CLint at 1 µM (CYP3A4): 0.27 µL/min/mg
O=C(Cn1cnc(C2CC2)n1)N1CCN(c2sc(C(F)(F)F)nc2-c2cnc(C(F)(F)F)nc2)C[C@H]1CCO	12	7300	59.1	
Cc1ccn(CC(=O)N2CCN(c3sc(C(F)(F)F)nc3-c3cnc(C(F)(F)F)nc3)C[C@@H]2CO)n1	< 10	21000	74.6	fraction unbound at 6 h, 1 µM [8]: 0.01; fraction unbound at 6 h, 1 µM [10]: 0.11; CLH [11]: 2.4 µL/min/mg; CLH [12]: < 2 µL/min/mg; CL free [13]: 100 mL/min/kg; dose excreted [21]: 1%; microsomal CLint at 1 µM [14]: 16 µL/min/mg; fraction unbound at 6 h, 1 µM [15]: 0.22; microsomal CLint at 1 µM (CYP2D6): 0.41 µL/min/mg; clearance [16]: 7.1 mL/min/kg; microsomal CLint at 1 µM [17]: 13 µL/min/mg; microsomal CLint at 1 µM (CYP3A4): 1.18 µL/min/mg; logD [7]: 3; CL free [18]: 710 mL/min/kg; clearance [19]: 22 mL/min/kg; CLH [20]: 2.8 µL/min/mg
O=C(Cn1cnc(C2CC2)n1)N1CCN(c2sc(C(F)(F)F)nc2-c2cnc(C(F)(F)F)nc2)C[C@H]1CO	< 10	31000	140	
Cc1ncn(CC(=O)N2CCN(c3sc(C(F)(F)F)nc3-c3cnc(C(F)(F)F)nc3)C[C@@H]2CCO)n1	< 10	> 60000	643	
Cc1ccn(CC(=O)N2CCN(c3sc(C(F)(F)F)nc3-c3cnc(C(F)(F)F)nc3)C[C@H]2C)n1		5100	56.4	logD [7]: 3.4
CC(C)c1ncn(CC(=O)N2CCN(c3sc(C(F)(F)F)nc3-c3cnc(C(F)(F)F)nc3)C[C@@H]2CO)n1	27	17000	161	
CCc1nncn1CC(=O)N1CCN(c2sc(C(F)(F)F)nc2-c2cnc(C(F)(F)F)nc2)C[C@H]1C		> 60000	1190	logD [7]: 2.3
CC(C)c1ncn(CC(=O)N2CCN(c3sc(C(F)(F)F)nc3-c3cnc(C(F)(F)F)nc3)C[C@@H]2CCO)n1	22	19000	165	microsomal CLint at 1 µM (CYP2D6): 0.28 µL/min/mg; microsomal CLint at 1 µM (CYP3A4): 1.9 µL/min/mg
Cc1ccn(CC(=O)N2CCN(c3sc(C(F)(F)F)nc3-c3cnc(C(F)(F)F)nc3)C[C@@H]2CCO)n1	23	12000	143	microsomal CLint at 1 µM (CYP2D6): 0.37 µL/min/mg; microsomal CLint at 1 µM (CYP3A4): 0.56 µL/min/mg
Cc1ncn(CC(=O)N2CCN(c3sc(C(F)(F)F)nc3-c3cnc(C(F)(F)F)nc3)C[C@H]2CO)n1	< 10	> 60000	167	
Cc1ncn(CC(=O)N2CCN(c3sc(C(F)(F)F)nc3-c3cnc(C(F)(F)F)nc3)C[C@H]2C)n1		17000	144	logD [7]: 2.7
CCc1nc(C)n(CC(=O)N2CCN(c3sc(C(F)(F)F)nc3-c3cnc(C(F)(F)F)nc3)C[C@H]2C)n1		8700	483	
